Experimental data published in the NIST ThermoML archive (doi:10.1016/j.tca.2018.11.010).
± gives the expanded uncertainty stated by the source.

Test: wn = mass fraction of the nth substance listed
Conditions: 298 K; 100 kPa; Liquid; Laser flash apparatus; w1 = 0.9

thermal conductivity: 0.2513 ± 0.0057 W/m/K
Structure (SMILES): CCCCCCCC/C=C\CCCCCCCC(=O)O [(Z)-9-octadecenoic acid] + CCCCCCCCCCCCCC(=O)O
